Measured values from patent publication US20250282732A1, “NOVEL ESTERS OF 1,2,3,4,4a,5,6,7,8,9,10,10a-DODECAHYDROBENZO[G]QUINOLIN-6-OL COMPOUNDS AND USES THEREOF” (INTEGRATIVE RESEARCH LABORATORIES SWEDEN AB, priority 2022, published 2025).

Assays:
Type in all cases: in vivo, rat
[1] = tested on: non-pre-treated Sprague-Dawley rats; assay: Spontaneous locomotor activity (distance travelled); settings: for effect on motor activity patterns (distance travelled): 0.3 μmol/kg single dose, Preparation 4A SC, Example 5 PO and SC, vs saline, 0-180 min post dosing; for on-set of action (distance travelled increases after the initial decrease): time after administration
Experimental: Behavioral activity was measured using eight Digiscan activity monitors (RXYZM (16) TAO, Omnitech Electronics, Columbus, OH, USA), connected to an Omnitech Digiscan analyzer and an Apple Macintosh computer equipped with a digital interface board (NB DIO-24, National Instruments, USA). Each activity monitor consisted of a quadratic metal frame (W×L=40 cm×40 cm) equipped with photo beam sensors. During measurements of behavioral activity, a rat was put in a transparent acrylic cage (W×L×H, 40×40×30 cm) which in turn was placed in the activity monitor. Each activity monitor was equipped with three rows of infrared photo beam sensors, each row consisting of 16 sensors. Two rows were placed along the front and the side of the floor of the cage, at a 90° angle, and the third row was placed 10 cm above the floor to measure vertical activity. Photo beam sensors were spaced 2.5 cm apart. Each activity monitor was fitted in an identical sound and light attenuating box containing a weak house light and a fan. The computer software was written using object-oriented programming (LabVIEW™, National instruments, Austin, TX, USA). Behavioral data from each activity monitor, representing the position (horizontal center of gravity and vertical activity) of the animal at each time, were recorded at a sampling frequency of 25 Hz and collected using a custom written LABView™ application. The data from each recording session were stored and analyzed with respect to distance traveled. Each behavioral recording session lasted 180 min, starting approximately 5 min after the injection of test compound.
Compounds disclosed herein have been tested for effects on spontaneous locomotor activity in non-pre-treated Sprague-Dawley rats (based on accumulated distance travelled 0-180 min post dosing), and with the single dose of 0.3 μmol/kg (n=5, SC) compared to a control group of animals (n=5) that obtained saline (SC). The prior art compound according to Preparation 4A was administered subcutaneously (SC). The compound according to Example 5 was administered perorally (PO) and subcutaneously (SC), respectively. The unit of the distance travelled is an arbitrary unit.
The animals were placed in the motility meters immediately after administration and locomotor activity was recorded for 180 minutes. Results are presented as distance travelled for the control group (empty bar) and for the group of animals that obtained the drug (filled bar).
The animals were placed in the motility meters immediately after administration and locomotor activity was recorded for 180 minutes. Results are presented as distance travelled for the control group (empty bars) and for the group of animals that obtained the drug (filled bar).

Arc mRNA = Arc mRNA tissue levels in brain regions (real-time PCR); settings: SC, 0.3 and 1 μmol/kg; 60 min after injection; vs controls
Experimental: (§1) Animals were killed 60 min after the injection of the drugs by decapitation.
(§2) The brains were dissected into a left and a right part. The left part was analyzed for gene expression and dissected into 4 different areas:
(§3) Limbic system (containing nucleus accumbens, most parts of the olfactory tubercle, ventral pallidum and amygdala), striatum, frontal cortex, and hippocampus.
(§4) Total RNA was prepared by RNeasy Plus Universal Tissue Mini Kit (Qiagen).
(§5) RNA pellets were dissolved in RNAse-free water and stored at −80° C. The sample concentration was determined spectrophotometrically by a Nanorop ND-1000.
A two-step reversed transcription was performed by using a SuperScript III kit (Invitrogen). 1 μg of total RNA was reversed transcribed with 5 μl 2× RT Reaction Mix, 1 μl RT Enzyme and the mix volume was adjusted to 10 μl with RNAse-free water. The samples were incubated at 25° C. for 10 mi, 50° C. for 30 mi and finally 85° C. for 5 mi. 1 U of E. coli RNase H was added following incubation at 37° C. for 20 mi and 85° C. for 5 minutes. The cDNA solution was diluted 40 times in Tris EDTA buffer solution pH8 (Merck) and stored at −20° C.
Three sequences (arc and two reference genes) were amplified together in a triplex PCR-reaction. For real-time PCR measurements: 5 μl of the cDNA reaction was amplified in a 20 μl reaction mixture containing 10 μl PerfeCTa MultiPlex qPCR SuperMix (Quantabio), 3.5 μl RNAse-free water, 0.15 μM of each primer and 0.1 μM of each probe. Real-time PCR was measured on CFX96 (Bio-Rad) using the following settings for all genes: 3 mi pre-incubation at 95° C. followed by 40 cycles of denaturation at 95° C. for 15s, annealing and elongation at 60° C. for 1 mi. […]
FIG. 5 illustrates the effects on tissue levels of Arc mRNA in four different regions of the brain (limbic regions, striatum, frontal cortex and hippocampus) after subcutaneous administration of two different compounds at two different doses as in comparison to that of corresponding control experiments. The bars in the left half of the figure represent the effects on ARC by the prior art compound according to Preparation 4A ((4aR,10aR)-1-propyl-1,2,3,4,4a,5,8,9,10,10a-decahydrobenzo[g]quinolin-6(7H)-one) and the bars in the right half of the figure represent the effects on ARC by the compound of the present disclosure according to Example 5 oxalic acid salt of ((4aR,10aR)-1-propyl-1,2,3,4,4a,5,6,7,8,9,10,10a-dodecahydrobenzo[g]quinolin-6-yl acetate (Mixture of 6R and 6S epimers). The effects on tissue levels of Arc by both of the two aforementioned compounds were measured at two different doses (0.3 μmol/kg and 1 μmol/kg) and the effect is presented as percent of control means±SEM. Statistical significance was assessed using Student's t-test (2 tailed) vs controls.

Npas4 = Npas4 mRNA tissue levels in brain regions (TaqMan PCR); settings: 60 min after injection; to a greater extent than the prior art compound according to Preparation 4A
Experimental: as §1, §2, §3, §4, §5
A two-step reversed transcription was performed by using a SuperScript III kit (Invitrogen). 1 μg of total RNA was reversed transcribed with 5 μl 2× RT Reaction Mix, 1 μl RT Enzyme and the mix volume was adjusted to 10 μl with RNAse-free water. The samples were incubated at 25° C. for 10 mi, 50° C. for 30 mi and finally 85° C. for 5 mi. […]
EGR-1 (Early growth response qRnoCEP0022872) was analyzed in duplex with the reference gene HPRT (hypoxanthine phosphoribosyltransferase qRnoCEP0050840). Npas4 (neuronal PAS domain protein4 qRnoCEP0029461) was analyzed in singleplex. The reference gene Ppia (cyclophilin A peptidyl-propyl cis-trans isomeraseqRnoCIP0050815) was also analyzed in order to quantify gene expression for genes of interest.

**Q.** `CCCN1CCC[C@@H]2CC3=C(CCCC3=O)C[C@H]21` [Preparation 4A, (4aR,10aR)-1-propyl-1,2,3,4,4a,5,8,9,10,10a-decahydrobenzo[g]quinolin-6(7H)-one, reference compound] was tested. Which “immediate effect on motor activity: long distance travelled already within” value ([1]; 0.3 μmol/kg SC) did it give?
**A.** 20 to 45 min

**Q.** And the “effect on motor activity patterns (distance travelled)” value [1]?
**A.** induce hyperactivity

**Q.** What about the “on-set of action (distance travelled increases after the initial decrease)” value ([1]; 0.3 μmol/kg) of the same molecule?
**A.** 20 to 25 min

**Q.** And the “tissue levels of Arc in the frontal cortex” value (Arc mRNA)?
**A.** dose-dependently increase

**Q.** And the “tissue levels of Arc in the limbic regions” value (Arc mRNA)?
**A.** does not have

**Q.** For `CCCN1CCC[C@@H]2CC3=C(CCCC3OC(C)=O)C[C@H]21.O=C(O)C(=O)O` (stereo partly drawn) [Example 5, (4aR,10aR)-1-propyl-1,2,3,4,4a,5,6,7,8,9,10,10a-dodecahydrobenzo[g]quinolin-6-yl acetate], which “tissue levels of Npas4 in the limbic regions” value (Npas4) is on record?
**A.** increases tissue levels

**Q.** What about the “effect on motor activity patterns (distance travelled)” value [1] of the same molecule?
**A.** induce hyperactivity

**Q.** What about the “duration of action as compared to the prior art compound (trend)” value ([1]; 0.3 μmol/kg, increase in desired effect observed much later in the experiment) of the same molecule?
**A.** longer duration of action

**Q.** What about the “on-set of action (distance travelled increases after the initial decrease)” value ([1]; 0.3 μmol/kg) of the same molecule?
**A.** 35 to 40 min

**Q.** What about the “tissue levels of Arc in the frontal cortex” value (Arc mRNA) of the same molecule?
**A.** dose-dependently increase

**Q.** What about the “tissue levels of Arc in the limbic regions” value (Arc mRNA) of the same molecule?
**A.** dose-dependently increases
